Assay [1] is described as follows: Percent inhibition against Aggrecanase at 500 nM.
The target in another assay is Collagenase 3 (Homo sapiens, UniProt P45452). The assay can be described thus: Inhibitory concentration against Matrix metalloprotease-13 (MMP-13).
Assay [2] addresses Disintegrin and metalloproteinase domain-containing protein 17 (Homo sapiens, UniProt P78536). The assay can be described thus: Inhibitory concentration against TNF-alpha converting enzyme.
The subject of the next assay is Cell line. The assay is described as follows: Inhibitory concentration against TNF-alpha release in LPS-stimulated human whole blood. Type of assay: functional, cell-based.
A further assay has as its target T1, Interstitial collagenase (Homo sapiens, UniProt P03956).
T1 sequence (P03956 whole entry): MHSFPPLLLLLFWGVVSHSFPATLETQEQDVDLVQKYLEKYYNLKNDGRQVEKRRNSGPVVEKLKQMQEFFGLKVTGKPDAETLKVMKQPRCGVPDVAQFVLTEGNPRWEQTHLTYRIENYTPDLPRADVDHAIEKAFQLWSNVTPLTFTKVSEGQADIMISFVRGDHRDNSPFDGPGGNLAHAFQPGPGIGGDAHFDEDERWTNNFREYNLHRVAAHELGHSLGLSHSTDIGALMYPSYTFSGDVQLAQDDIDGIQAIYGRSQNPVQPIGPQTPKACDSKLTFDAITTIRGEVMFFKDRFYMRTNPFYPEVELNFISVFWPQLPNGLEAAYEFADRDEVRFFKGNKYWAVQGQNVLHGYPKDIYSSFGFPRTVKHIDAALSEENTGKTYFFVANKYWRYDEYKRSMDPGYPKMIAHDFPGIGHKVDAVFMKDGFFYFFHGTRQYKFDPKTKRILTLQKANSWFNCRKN
The assay is described as follows: Inhibitory concentration against Matrix metalloprotease-1 (MMP-1).

Assay [3] in a line: Inhibitory concentration against Aggrecanase.

The values that follow come from ChEMBL document CHEMBL1145277, “Discovery of 3,3-dimethyl-5-hydroxypipecolic hydroxamate-based inhibitors of aggrecanase and MMP-13” (Bioorg Med Chem Lett, 2005).

The structures appear in SMILES notation. Some results are limits rather than exact numbers.

Chain of Disintegrin and metalloproteinase domain-containing protein 17 (P78536 whole entry, the tested form may be a part): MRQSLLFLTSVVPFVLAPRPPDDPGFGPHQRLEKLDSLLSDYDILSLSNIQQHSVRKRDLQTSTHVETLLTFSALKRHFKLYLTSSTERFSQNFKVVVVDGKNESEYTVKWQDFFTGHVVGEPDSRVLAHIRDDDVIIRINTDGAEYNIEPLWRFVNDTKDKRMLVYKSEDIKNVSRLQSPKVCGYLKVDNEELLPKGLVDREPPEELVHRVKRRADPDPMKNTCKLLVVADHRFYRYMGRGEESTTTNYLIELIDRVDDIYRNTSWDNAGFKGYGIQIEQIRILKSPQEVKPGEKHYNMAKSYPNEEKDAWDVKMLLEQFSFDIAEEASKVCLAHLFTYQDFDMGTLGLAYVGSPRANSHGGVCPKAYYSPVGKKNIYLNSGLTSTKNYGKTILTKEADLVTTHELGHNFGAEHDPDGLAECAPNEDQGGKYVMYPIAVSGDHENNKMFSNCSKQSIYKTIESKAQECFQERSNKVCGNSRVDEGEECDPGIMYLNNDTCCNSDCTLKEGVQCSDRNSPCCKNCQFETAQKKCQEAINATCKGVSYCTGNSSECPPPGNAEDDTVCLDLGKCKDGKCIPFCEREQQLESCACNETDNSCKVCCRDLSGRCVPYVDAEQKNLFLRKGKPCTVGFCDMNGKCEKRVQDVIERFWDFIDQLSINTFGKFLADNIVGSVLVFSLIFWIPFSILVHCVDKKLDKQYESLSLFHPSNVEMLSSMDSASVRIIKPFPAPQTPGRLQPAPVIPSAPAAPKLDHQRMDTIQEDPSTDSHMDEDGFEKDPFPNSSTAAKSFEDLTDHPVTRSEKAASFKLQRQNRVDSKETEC

Usually inhibition stands for the relative decrease from the control value, in per cent. A high value points to a strong effect. As a reminder, the IC50 is the point on the concentration scale where inhibition reaches its midpoint. As for `CC(C)c1ccccc1COc1ccc(S(=O)(=O)N2C[C@H](O)CC(C)(C)[C@@H]2C(=O)NO)cc1`, the inhibition in assay [1] is 78%. In addition, the IC50 against Collagenase 3 came out at 188 nM; in assay [2], 12 nM; in the assay on Cell line, 1800 nM; at Interstitial collagenase it was 2300 nM.

Regarding `Cc1cc(F)ccc1COc1ccc(S(=O)(=O)N2C[C@H](O)CC(C)(C)[C@@H]2C(=O)NO)cc1`, the IC50 against Collagenase 3 is 3.5 nM; in assay [2], 5.2 nM; with Cell line, 5480 nM; in assay [3], 2.7 nM; at Interstitial collagenase, 255 nM.

`CC1(C)C[C@@H](O)CN(S(=O)(=O)c2ccc(OCc3ccc(Br)cc3)cc2)[C@H]1C(=O)NO`: the IC50 at Collagenase 3 is 1.4 nM; in assay [2] it was 10 nM; with Cell line, 7700 nM; in assay [3], over 100 nM; against Interstitial collagenase, 100 nM.

With `Cc1ccc(F)cc1COc1ccc(S(=O)(=O)N2C[C@H](O)CC(C)(C)[C@@H]2C(=O)NO)cc1`, the IC50 is 6.5 nM on Collagenase 3; 7.3 nM in assay [2]; 3450 nM in the assay with Cell line; 40 nM in assay [3]; 790 nM at Interstitial collagenase.

As for `Cc1cccc(COc2ccc(S(=O)(=O)N3C[C@H](O)CC(C)(C)[C@@H]3C(=O)NO)cc2)c1`, the IC50 on Collagenase 3 is 2.8 nM; in assay [2], 12 nM; in the assay on Cell line, 25800 nM; in assay [3] it was over 100 nM; on Interstitial collagenase it was 773 nM.

For the molecule `Cc1ccc(F)cc1COc1ccc(S(=O)(=O)N2C[C@H](O)CC[C@@H]2C(=O)NO)cc1`, the half-inhibitory concentration (IC50) was 2.1 nM on Collagenase 3; 6.2 nM in assay [2]; 1400 nM with Cell line; 145 nM in assay [3]; 5100 nM at Interstitial collagenase.

In assay [1], `Cc1nscc1COc1ccc(S(=O)(=O)N2C[C@H](O)CC(C)(C)[C@@H]2C(=O)NO)cc1` yielded an inhibition of 76%. For the same molecule, the figures for the concentration for half-maximal inhibition (IC50) (in assay [2]; with Cell line) were 12 nM and 5200 nM, respectively.

As for `CC1(C)C[C@@H](O)CN(S(=O)(=O)c2ccc(OCc3ccnc4ccccc34)cc2)[C@H]1C(=O)NO`, the IC50 came out at 7.8 nM against Collagenase 3, 950 nM in the assay on Cell line, 15 nM in assay [3] and 170 nM against Interstitial collagenase.

As to `CC1(C)C[C@@H](O)CN(S(=O)(=O)c2ccc(OCc3ccncc3Cl)cc2)[C@H]1C(=O)NO`, the IC50 at Collagenase 3 was determined as 19 nM; in the assay with Cell line it was 10200 nM; in assay [3], 18 nM; at Interstitial collagenase, 1100 nM.

On to `Cc1ccccc1COc1ccc(S(=O)(=O)N2C[C@H](O)CC(C)(C)[C@@H]2C(=O)NO)cc1`, for which the IC50 against Collagenase 3 amounted to 14 nM; in assay [2], 7.3 nM; in the assay with Cell line, 4900 nM; in assay [3] it was 38 nM; against Interstitial collagenase, 690 nM.

With `CC1(C)C[C@@H](O)CN(S(=O)(=O)c2ccc(OCc3ccccc3Br)cc2)[C@H]1C(=O)NO`, the IC50 worked out at 8 nM against Collagenase 3; 11 nM in assay [2]; 8900 nM in the assay with Cell line; 16 nM in assay [3]; 715 nM against Interstitial collagenase.

For the molecule `CC1(C)C[C@@H](O)CN(S(=O)(=O)c2ccc(OCc3cccc(Br)c3)cc2)[C@H]1C(=O)NO`, the inhibition in assay [1] worked out at 57%. The IC50 in assay [2] worked out at 15 nM; in the assay on Cell line, 19000 nM.

For the molecule `Cc1c(F)cccc1COc1ccc(S(=O)(=O)N2C[C@H](O)CC(C)(C)[C@@H]2C(=O)NO)cc1`, the IC50 against Collagenase 3 was determined as 4.3 nM; in assay [2], 17 nM; with Cell line it was 2880 nM; in assay [3], 3.9 nM; against Interstitial collagenase, 679 nM.

On to `CC1(C)C[C@@H](O)CN(S(=O)(=O)c2ccc(OCc3ccc(F)cc3Cl)cc2)[C@H]1C(=O)NO`, for which the IC50 against Collagenase 3 worked out at 0.5 nM; with Cell line, 10200 nM; against Interstitial collagenase, 592 nM.

`Cc1cnsc1COc1ccc(S(=O)(=O)N2C[C@H](O)CC(C)(C)[C@@H]2C(=O)NO)cc1`: the inhibition in assay [1] was found to be 55%. Further, the IC50 in assay [2] turned out to be 16 nM; with Cell line it was 4950 nM.

Turning to `CCc1ccccc1COc1ccc(S(=O)(=O)N2C[C@H](O)CC(C)(C)[C@@H]2C(=O)NO)cc1`, the IC50 against Collagenase 3 stood at 36 nM; in assay [2] it was 6.7 nM; with Cell line, 1100 nM; in assay [3], 67 nM; against Interstitial collagenase, 1500 nM.

In the case of `CC1(C)C[C@@H](O)CN(S(=O)(=O)c2ccc(OCc3nccc4ccccc34)cc2)[C@H]1C(=O)NO`, the IC50 is 53 nM against Collagenase 3; 10 nM in assay [2]; 2420 nM in the assay with Cell line; over 100 nM in assay [3]; 290 nM at Interstitial collagenase.

As to `Cc1ncccc1COc1ccc(S(=O)(=O)N2C[C@H](O)CC(C)(C)[C@@H]2C(=O)NO)cc1`, the figures for the IC50 (in assay [2]; in the assay on Cell line; in assay [3]) were 6.7 nM, 2000 nM and 91 nM, respectively.

As for `Cc1ccc(COc2ccc(S(=O)(=O)N3C[C@H](O)CC(C)(C)[C@@H]3C(=O)NO)cc2)cc1`, in assay [1], the inhibition is 19%. Besides, the IC50 stood at 1.2 nM against Collagenase 3, 11 nM in assay [2], 19200 nM in the assay on Cell line and 198 nM on Interstitial collagenase.

Consider `CC1(C)C[C@@H](O)CN(S(=O)(=O)c2ccc(OCc3ccc(Cl)cc3Cl)cc2)[C@H]1C(=O)NO`, for which the IC50 was found to be 3 nM against Collagenase 3; 19 nM in assay [2]; 31000 nM in the assay with Cell line; 2.1 nM in assay [3]; 430 nM against Interstitial collagenase.
